Target: T1, human monoacylglycerol lipase (MGL) (Homo sapiens, UniProt Q99685)
T1 sequence (Q99685 1-303): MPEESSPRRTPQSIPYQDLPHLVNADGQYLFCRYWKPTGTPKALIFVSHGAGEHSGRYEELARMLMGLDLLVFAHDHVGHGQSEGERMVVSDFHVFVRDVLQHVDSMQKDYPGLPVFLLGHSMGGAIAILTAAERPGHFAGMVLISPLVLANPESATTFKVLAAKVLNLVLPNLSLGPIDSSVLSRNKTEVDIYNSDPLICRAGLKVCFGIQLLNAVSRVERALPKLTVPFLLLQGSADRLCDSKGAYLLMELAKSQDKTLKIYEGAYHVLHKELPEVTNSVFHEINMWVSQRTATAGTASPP
Format: biochemical

For `CC[C@H](CC[C@@H](C)[C@H]1CC[C@H]2[C@@H]3CC=C4C[C@@H](O)CC[C@]4(C)[C@H]3CC[C@]12C)C(C)C` [beta-sitosterol], the IC50 was 19.5 µM.
